Measurements taken from patent US20080103209A1, “Compounds And Methods For Treating Non-Inflammatory Pain Using Ppar Alpha Agonists” (The Regents of The University of California, priority 2004, published 2008).

Legend:
[1] = tested on: mice; assay: Formalin-evoked pain behavior (hind paw licking); type: in vivo, mouse; conditions: for effect of CB2 antagonist on antinociceptive effect of GW7647: GW7647 50 μg i.pl.; for effect of CB2 antagonist on antinociceptive effect of GW7647 / effect of CB2 antagonist on antinociceptive effect of PEA: AM630 2 mg-kg^−1 i.p.; for effect of CB2 antagonist on antinociceptive effect of PEA: PEA 50 μg i.pl.; for phase I and II formalin pain in wild-type mice: wild-type C57BL6 mice
Method: Administration of formalin into the mouse hind paw evokes a pain behavior consisting of two temporally distinct phases of licking and flexing of the injected limb (Dubuisson, et al., Pain 4, 161-74 (1977)). The first phase, which starts immediately after formalin injection and lasts 5-10 min, is due to activation of nociceptive fibers and is accompanied by the local release of nitric oxide and adenosine [Dickenson, et al., Neurosci Lett 83, 207-11 (1987); Omote, et al., Brain Res 787, 161-4 (1998); Omote et al., 2000; Liu, et al., J Neurochem 80, 562-70 (2002)]. Following a quiescent interval of 10-15 minutes, a second phase of nociceptive behavior appears, which is associated with local inflammation [Rosland, et al., Pain 42, 235-42 (1990)] and central sensitization [Coderre, et al., J Neurosci 12, 3665-70 (1992)]. […] (2001); Farquuar-Smith, 2002]. […] The effects of PEA in C57BL/6J mice in which the PPARα gene had been deleted by homologous recombination (PPARα^−/−)[Lee, et al., Mol Cell Biol 15, 3012-22 (1995)] were examined to determine whether PPARα contributes to these properties.
Although PPARα is known to regulate the inflammatory response [Devchand, et al., Nature 384, 39-43. (1996); Cabrero, et al., Curr Drug Targets Inflamm Allergy 1, 243-8 (2002); Berger, et al., Annu Rev Med 53, 409-35 (2002); Chinetti, et al., Inflamm Res 49, 497-505 (2000)], its roles in the modulation of acute nociceptive pain remain unexplored. A series of structurally diverse PPAR-α agonists were tested for their ability to reduce pain behavior in an animal model of chemical tissue damage. Injection of formalin into the mouse hind paw evokes a nocifensive behavior consisting of two distinct phases. The first phase results from direct activation of nociceptive fibers and starts immediately after formalin administration, while the second phase develops over a period of approximately 60 min and is associated with local inflammation and central sensitization.
Mice received intraplantar injections of formalin (5% vol/vol, 10 μl) in saline containing polyethylene glycol (5%) and Tween 80 (5%). The duration of paw licking was monitored by an observer for periods of 0-15 min (early or first phase) and 15-45 min (late or second phase) immediately after formalin administration.
Formalin test. Formalin (5%, 10 μl)-induced paw licking was monitored for 0-15 min (first phase) and 15-45 min (second phase) as described (Calignano, et al., Nature 394, 277-81 (1998).

[2] = tested on: mice; assay: TPA-induced ear edema (irritant contact dermatitis); type: in vivo, mouse; conditions: topical co-application, CD1 mice
Description: (§1) In addition to rapid-onset analgesia, PEA also exerts prolonged anti-inflammatory effects [Benvenuti, et al., Boll Soc It Biol Sper 44, 809-813 (1968); Lambert, et al., Curr Med. Chem. 9, 663-74 (2002)], which are associated with the down-regulation of pro-inflammatory proteins such as nitric oxide synthase (NOS) [Costa, et al., Br J Pharmacol 137, 413-20. (2002)]. Two models of acute inflammation were used to examine whether such effects are mediated through PPARα. First, paw edema was induced in C57B16J wild-type and PPARα^−/− mice by local injection of the irritant, carrageenan [Cirino, et al., Eur J Pharmacol 166, 505-10 (1989)]. […] Next, ear edema was produced in CD1 mice by topical administration of the phorbol ester, 12-O-tetradecanoylphorbol-13-acetate (TPA) [Sheu, et al., J Invest Dermatol., 94-101. (2002)]. […] In a parallel set of experiments, the effects of PEA (20 μg) on TPA-induced edema were tested in C57B16J wild-type and PPARα^−/− mice. […] Together, these findings indicate that PEA reduces acute nociception and inflammation through activation of PPARα.
As previous described procedure [Sheu, et al., J Invest Dermatol., 94-101. (2002)], 12-O-tetradecanoylphorbol-13-acetate (TPA) was dissolved in acetone (0.03%, w v^−1) and topically delivered with a pipette to the inner and outer surfaces (10 μl/side) of mice ears. Experimental agents were dissolved in acetone and delivered topically (20 μl/side) 45 minutes and 4 hours after TPA. 18 hours after TPA administration, the mice were euthanized with CO2 and the ears punched (diameter=2 mm) four times. The 4 excised punches of skin were combined and weighed to assess edema.

[3] = target: T1, human CB2 (Homo sapiens, UniProt P34972); assay: CB2 receptor binding, [3H]-WIN-55212-2 displacement in CB2-overexpressing CHO cell membranes
T1 construct: purchased Perkin-Elmer, Boston, Mass; host or cells: CHO cells (membranes)
T1 sequence (P34972 whole entry): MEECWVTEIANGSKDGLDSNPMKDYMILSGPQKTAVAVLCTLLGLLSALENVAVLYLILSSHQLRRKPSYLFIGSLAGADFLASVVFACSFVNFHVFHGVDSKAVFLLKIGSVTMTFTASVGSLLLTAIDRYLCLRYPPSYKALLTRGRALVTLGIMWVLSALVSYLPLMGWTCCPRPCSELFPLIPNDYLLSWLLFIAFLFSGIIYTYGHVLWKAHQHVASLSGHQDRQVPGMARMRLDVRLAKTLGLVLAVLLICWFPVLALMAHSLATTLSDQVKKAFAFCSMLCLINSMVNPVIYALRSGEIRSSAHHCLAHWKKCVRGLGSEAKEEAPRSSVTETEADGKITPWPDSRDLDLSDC

[4] = tested on: mice; assay: Carrageenan-evoked paw edema (acute); type: in vivo, mouse; conditions: wild-type C57Bl6J; PEA 10 mg-kg^−1 i.p., WY-14643 20 mg-kg^−1 i.p.
Description: as §1
An inflammatory response was initiated by injecting 2% (w v^−1, 20 μl) λ-carrageenan in sterile saline into mice hind paws using a 27-gauge needle. Drugs were administered 30 minutes before carrageenan (i.p.). Paw edema was measured using a plethysmometer (Ugo Basile, Italy).

[5] = tested on: mice; assay: Magnesium sulfate-evoked writhing test; type: in vivo, mouse; conditions: subcutaneous, Swiss mice
Method: Mice received a single dose of magnesium sulfate (120 mg/kg, dissolved in 0.5 ml saline, i.p.) and subsequent writhing episodes were monitored for a period of 30 min thereafter. Drugs were administered in saline/Tween 80/polyethylenglycol, (90/5/5) subcutaneously, 30 minutes before magnesium sulfate.
Next, the effect of PPARα agonists on the nocifensive behavior elicited by intraperitoneal injection of magnesium sulfate in mice, a model of visceral pain (Calignano, et al, Eur J Pharmacol 419, 191-8. (2001)), was explored.
Writhing test. Magnesium sulfate was injected (120 mg-kg^−1 in 0.5 ml saline, i.p.) in 12-h food-deprived mice and measured writhing episodes for 30 min (Calignano, et al, Eur J Pharmacol 419, 191-8. (2001)). Drugs or vehicle were administered by subcutaneous injection 30 min before magnesium sulfate.

[6] = tested on: Swiss mice; assay: Sciatic nerve ligation neuropathy, mechanical and thermal hyperalgesia; type: in vivo, mouse
Method: To examine whether PPARα agonists modulate the persistent pain hypersensitivity associated with nerve injury, peripheral neuropathy was produced in mice by partially ligating the left sciatic nerve, a surgical procedure that results in the development of mechanical and thermal hyperalgesia in the operated limb (Bennett et al., Pain, 33, 87 (1988)).
Sciatic nerve ligation was performed essentially following the method of Bennett and Xie (Bennett et al., Pain 33, 87 (1988)). Briefly, male Swiss mice were anesthetized with sodium pentobarbital, the left sciatic nerve was exposed at mid-thigh level through a small incision and one-third to one-half of the nerve thickness was tightly ligated with a silk thread. The wound was closed with a single muscle suture and skin clips, and dusted with streptomycin powder. In sham-operated animals, the nerve was exposed but not ligated.
Mechanical hyperalgesia was determined by measuring paw withdrawal thresholds to an increasing pressure onto the dorsal surface of the paw using an analgesimeter (Ugo Basile, Italy) with a cut-off of 250 g. Withdrawal thresholds were measured on both the ipsilateral paw (inflamed or ligated) and contralateral paw (uninflamed or unligated) 60 min after subcutaneous drug administration.
Thermal hyperalgesia was assessed by the methods of Hargreaves (Hargreaves et al., Pain, 32, 77 (1988)) by measuring the latency to withdraw the hind paws from a focussed beam of radiant heat applied to the plantar surface, using an appropriate apparatus (Ugo Basile, Italy). The cut-off time was set at 30 sec. The mice were habituated to the apparatus for 10-15 min two days prior to the experiment.

[7] = target: T2, human PPARα (Homo sapiens, UniProt Q07869); assay: PPARα transactivation assay (HeLa cells, luciferase reporter); type: cell-based
T2 construct: expressed in transfected cells
T2 sequence (Q07869 239-466 limits assumed): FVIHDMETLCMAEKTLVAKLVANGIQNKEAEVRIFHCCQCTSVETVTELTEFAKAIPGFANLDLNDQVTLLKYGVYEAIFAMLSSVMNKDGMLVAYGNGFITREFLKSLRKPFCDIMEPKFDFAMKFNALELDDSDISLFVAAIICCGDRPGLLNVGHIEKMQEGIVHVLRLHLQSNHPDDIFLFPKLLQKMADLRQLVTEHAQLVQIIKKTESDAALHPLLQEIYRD
Method: Transactivation assays were performed as previously described [Fu et al., Nature 425:90-93 (2003)].
PPAR-α transactivation. Plasmids were generated which contained the ligand-binding domain of human PPAR-α (nucleotides 499-1,407) fused to the DNA-binding domain of yeast GAL4 under control of the human cytomegalovirus promoter and to a neomycin resistance gene to provide stable selection with 0.2 mg-ml-1 G418 (Calbiochem). We cultured HeLa cells in Dulbecco's-modified Eagles's medium (DMEM) supplemented with fetal bovine serum (10%), transfected them with Fugene 6 ([…], Roche) containing the pFR-luc plasmid ([…], Stratagene) and, 18 h later, replaced the media with DMEM containing hygromycin (0.1 mg ml−1, Calbiochem). […] Cells were maintained in DMEM containing hygromycin and G418. For transactivation assays, we seeded cells in 6-well plates and incubated them for 7 h in DMEM containing hygromycin and G418, plus appropriate concentrations of test compounds. We used a dual-luciferase reporter assay system (Promega) and an MLX Microtiter® plate luminometer (Dynex) to determine luciferase activity in cell lysates.

[8] = formalin, Swiss mice, SR144528 1 mg-kg^−1

Which “formalin pain in PPARα−/− mice” value ([1]; PPARα−/− mice, 50 μg i.pl.) does the source give for `CCCCC/C=C\C/C=C\C/C=C\C/C=C\CCCC(=O)N[C@H](C)CO` [(R)-methanandamide] here?
Its value is “reversed”.

For `COc1ccc(C(=O)c2c(C)n(CCN3CCOCC3)c3cc(I)ccc23)cc1` [AM630], which “effect of CB2 antagonist on antinociceptive effect of GW7647” value [1, 8] is on record?
Its value is “did not affect”.

What about the “effect of CB2 antagonist on antinociceptive effect of PEA” value [1, 8] of the same compound?
Its value is “did not affect”.

For `Cc1cc(SCc2sc(-c3ccc(C(F)(F)F)cc3)nc2C)ccc1OCC(=O)O` [GW501516], which “phase I and II formalin pain in wild-type mice” value ([1]; 50 μg i.pl.) is on record?
The value was “inactive”.

`Cc1c(C(=O)NN2CCCCC2)nn(-c2ccc(Cl)cc2Cl)c1-c1ccc(Cl)cc1` [SR141716] was tested. Which “effect on antinociception by anandamide plus PEA or GW7647” value ([1]; SR141716 0.1 mg kg^−1 i.v., 10 min before formalin, agonists 0.1 μg/paw each) did it give?
The value was “prevents”.

What does the source list for `Cc1cccc(Nc2cc(Cl)nc(SCC(=O)O)n2)c1C` [Wy-14643, [4-chloro-6-(2,3-xylidino)-2-pyrimidinylthio]acetic acid]?
TPA-induced ear edema formation [2]: attenuated; first- and second-phase nociception ([1]; Swiss mice, i.pl. together with formalin, GW7647 0.1-50 μg, Wy-14643 50-200 μg, fenofibric acid 100-400 μg): attenuated first- and second-phase nociception in a dose-dependent manner; average half-maximal effective dose (ED50) to reduce first-phase pain ([1]; intraplantar with formalin, Swiss mice, ten experiments): 97.0 µg; [^3H]-WIN-55212-2 Binding (% of control) ([3]; Concentration 1 μM): 104.2 ± 3.6 % of control; [^3H]-WIN-55212-2 Binding (% of control) ([3]; Concentration 10 μM): 105.6 ± 1.5 % of control; carrageenan paw edema in wild-type mice [4]: decreased edema; average ED50, magnesium sulfate-evoked writhing ([5]; n=8): 25 mg/kg; number of writhing episodes evoked by magnesium sulfate ([5]; GW7647 1-30, Wy-14643 4-80, PEA 1-20 mg-kg^−1): dose-dependently decreased the number of writhing episodes

How did the “phase I and II formalin pain in wild-type mice” value ([1]; 50 μg i.pl.) turn out when `CC1(COc2ccc(CC3SC(=O)NC3=O)cc2)CCCCC1` (stereo not drawn) [ciglitazone] was run?
The value was “inactive”.

`NCC1(CC(=O)O)CCCCC1` [gabapentin] was tested. Which “mechanical and thermal pain thresholds in the non-ligated paw of neuropathic mice” value ([6]; data not shown) did it give?
Its value is “did not affect”.

And the “neuropathic hypersensitivity (mechanical and thermal pain thresholds), ligated limb” value ([6]; single s.c. dose day 7 and 14 after surgery, 60 min before test, PEA, GW7647 30 mg-kg^−1, gabapentin 60 mg-kg^−1)?
The value was “comparable in magnitude”.

With `CCCCCCCCCCCCCCCC(=O)O` [palmitic acid] as the compound, how does the “PPARα activation” value ([7]; HeLa cells, identical conditions) read?
Its value is “no effect”.

With SR144528 as the compound, how does the “effect of CB2 antagonist on antinociceptive effect of GW7647” value [1, 8] read?
Its value is “reverse”.

What about the “effect of CB2 antagonist on antinociceptive effect of PEA” value [1, 8] of the same compound?
Its value is “blocked”.

What about the “effect of CB2 antagonist on antinociceptive effect of Wy-14643” value ([1]; formalin, Swiss mice, Wy-14643 100 μg i.pl., SR144528 1 mg-kg^−1) of the same compound?
The value was “reverse”.

What about the “antagonism of PEA-induced PPARα activation in vitro” value ([7]; PEA 10 μM, SR144528 0-5 μM) of the same compound?
Its value is “did not significantly antagonize”.
